Bounds are passed on as bounds.

Common to all, as to assay: radiometric 33PanQinase protein kinase assay
Assay type in all cases: biochemical
What all share (settings): 1 µM ATP

In one assay the target is T1, FAK (Homo sapiens, UniProt Q05397).
T1 construct: host or cells: Sf9 (baculovirus)

For another assay, the target named is T2, FLT3 (Homo sapiens, UniProt P36888).
T2 construct: host or cells: Sf9 (baculovirus)

The next assay concerns the target T3, CK2-alpha1 (Homo sapiens, UniProt P68400).
T3 construct: host or cells: Sf9 (baculovirus)

The target of a further assay is T4, INS-R (Homo sapiens, UniProt P06213).
T4 construct: host or cells: Sf9 (baculovirus)

For the next assay, the target named is T5, ERBB2 (Homo sapiens, UniProt P04626).
T5 construct: host or cells: Sf9 (baculovirus)

For another assay, the target named is T6, SRC (Homo sapiens, UniProt P12931).
T6 construct: host or cells: Sf9 (baculovirus)

A further assay addresses T7, SAK (Homo sapiens, UniProt O00444).
T7 construct: host or cells: Sf9 (baculovirus)

The target in the next assay is T8, PDK1 (Homo sapiens, UniProt O15530).
T8 construct: host or cells: Sf9 (baculovirus)

A further assay concerns the target T9, PDGFR-beta (Homo sapiens, UniProt P09619).
T9 construct: host or cells: Sf9 (baculovirus)

Another assay deals with T10, ARK5 (Homo sapiens, UniProt O60285).
T10 construct: host or cells: Sf9 (baculovirus)

The target of the next assay is T11, PAK4 (Homo sapiens, UniProt O96013).
T11 construct: host or cells: Sf9 (baculovirus)

Another assay addresses T12, AKT1 (Homo sapiens, UniProt P31749).
T12 construct: host or cells: Sf9 (baculovirus)

For the next assay, the target named is T13, PLK1 (Homo sapiens, UniProt P53350).
T13 construct: host or cells: Sf9 (baculovirus)

In another assay the target is T14, EPHB4 (Homo sapiens, UniProt P54760).
T14 construct: host or cells: Sf9 (baculovirus)

T6 sequence (P12931 whole entry): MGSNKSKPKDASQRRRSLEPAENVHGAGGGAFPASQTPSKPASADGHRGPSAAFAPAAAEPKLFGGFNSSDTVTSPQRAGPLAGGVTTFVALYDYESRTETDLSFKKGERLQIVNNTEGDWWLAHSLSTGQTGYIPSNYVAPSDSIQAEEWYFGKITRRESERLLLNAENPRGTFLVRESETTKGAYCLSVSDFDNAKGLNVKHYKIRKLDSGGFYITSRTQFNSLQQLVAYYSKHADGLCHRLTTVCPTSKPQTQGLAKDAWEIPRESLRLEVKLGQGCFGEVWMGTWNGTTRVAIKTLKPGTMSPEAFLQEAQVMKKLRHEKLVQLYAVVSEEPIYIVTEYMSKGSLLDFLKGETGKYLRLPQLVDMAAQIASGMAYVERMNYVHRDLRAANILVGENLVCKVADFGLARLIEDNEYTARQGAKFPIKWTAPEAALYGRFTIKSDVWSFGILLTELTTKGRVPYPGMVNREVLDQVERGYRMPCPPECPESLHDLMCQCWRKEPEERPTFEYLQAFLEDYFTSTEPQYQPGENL
T2 sequence (P36888 27-993): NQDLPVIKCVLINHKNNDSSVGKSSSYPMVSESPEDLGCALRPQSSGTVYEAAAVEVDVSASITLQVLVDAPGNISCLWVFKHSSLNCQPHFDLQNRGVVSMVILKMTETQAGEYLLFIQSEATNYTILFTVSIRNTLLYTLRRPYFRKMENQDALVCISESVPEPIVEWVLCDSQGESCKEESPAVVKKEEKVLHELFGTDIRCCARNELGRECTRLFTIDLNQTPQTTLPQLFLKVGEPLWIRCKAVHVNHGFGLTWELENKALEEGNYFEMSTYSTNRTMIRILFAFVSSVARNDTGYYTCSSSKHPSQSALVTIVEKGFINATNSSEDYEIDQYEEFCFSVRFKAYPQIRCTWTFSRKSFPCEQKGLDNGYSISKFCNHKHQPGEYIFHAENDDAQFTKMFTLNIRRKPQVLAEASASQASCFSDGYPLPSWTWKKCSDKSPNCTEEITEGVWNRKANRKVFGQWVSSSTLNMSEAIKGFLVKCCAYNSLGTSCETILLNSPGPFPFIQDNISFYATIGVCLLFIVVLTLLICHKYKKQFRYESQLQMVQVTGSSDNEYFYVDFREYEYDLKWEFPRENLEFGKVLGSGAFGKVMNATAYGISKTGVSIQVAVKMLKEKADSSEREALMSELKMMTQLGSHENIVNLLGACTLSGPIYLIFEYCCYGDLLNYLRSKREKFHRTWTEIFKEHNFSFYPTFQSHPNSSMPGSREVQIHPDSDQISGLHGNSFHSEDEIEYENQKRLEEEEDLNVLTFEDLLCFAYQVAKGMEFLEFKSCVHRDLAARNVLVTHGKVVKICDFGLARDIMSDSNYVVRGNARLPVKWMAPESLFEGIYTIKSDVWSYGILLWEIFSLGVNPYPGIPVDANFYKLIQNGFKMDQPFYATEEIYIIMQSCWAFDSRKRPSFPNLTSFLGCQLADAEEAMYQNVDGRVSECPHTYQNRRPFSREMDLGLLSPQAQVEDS
T11 sequence (O96013 whole entry): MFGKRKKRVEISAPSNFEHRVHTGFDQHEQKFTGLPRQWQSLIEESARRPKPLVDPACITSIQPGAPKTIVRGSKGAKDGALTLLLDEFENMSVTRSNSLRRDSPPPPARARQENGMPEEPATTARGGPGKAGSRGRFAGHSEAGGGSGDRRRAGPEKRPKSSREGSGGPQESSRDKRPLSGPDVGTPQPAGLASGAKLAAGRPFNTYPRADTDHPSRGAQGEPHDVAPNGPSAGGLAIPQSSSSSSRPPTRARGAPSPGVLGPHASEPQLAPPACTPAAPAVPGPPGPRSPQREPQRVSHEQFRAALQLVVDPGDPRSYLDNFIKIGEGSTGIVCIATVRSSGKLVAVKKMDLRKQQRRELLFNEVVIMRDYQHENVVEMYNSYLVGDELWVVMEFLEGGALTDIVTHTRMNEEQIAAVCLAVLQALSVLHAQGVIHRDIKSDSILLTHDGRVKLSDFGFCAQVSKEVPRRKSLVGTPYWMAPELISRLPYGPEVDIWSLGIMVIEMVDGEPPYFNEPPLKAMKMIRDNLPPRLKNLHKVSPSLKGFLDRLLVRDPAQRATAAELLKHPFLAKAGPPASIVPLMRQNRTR
T3 sequence (P68400 whole entry): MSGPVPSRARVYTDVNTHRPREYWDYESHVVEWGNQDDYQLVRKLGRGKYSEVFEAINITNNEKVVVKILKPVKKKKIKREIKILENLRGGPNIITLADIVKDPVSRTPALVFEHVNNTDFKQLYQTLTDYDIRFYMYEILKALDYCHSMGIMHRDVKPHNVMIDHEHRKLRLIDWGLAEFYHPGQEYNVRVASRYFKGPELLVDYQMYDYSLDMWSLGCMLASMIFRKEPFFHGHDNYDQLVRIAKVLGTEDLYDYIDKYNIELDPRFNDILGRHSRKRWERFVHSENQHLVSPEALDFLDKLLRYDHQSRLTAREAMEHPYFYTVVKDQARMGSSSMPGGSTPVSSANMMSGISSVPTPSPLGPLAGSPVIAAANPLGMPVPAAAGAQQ
T5 sequence (P04626 23-1255): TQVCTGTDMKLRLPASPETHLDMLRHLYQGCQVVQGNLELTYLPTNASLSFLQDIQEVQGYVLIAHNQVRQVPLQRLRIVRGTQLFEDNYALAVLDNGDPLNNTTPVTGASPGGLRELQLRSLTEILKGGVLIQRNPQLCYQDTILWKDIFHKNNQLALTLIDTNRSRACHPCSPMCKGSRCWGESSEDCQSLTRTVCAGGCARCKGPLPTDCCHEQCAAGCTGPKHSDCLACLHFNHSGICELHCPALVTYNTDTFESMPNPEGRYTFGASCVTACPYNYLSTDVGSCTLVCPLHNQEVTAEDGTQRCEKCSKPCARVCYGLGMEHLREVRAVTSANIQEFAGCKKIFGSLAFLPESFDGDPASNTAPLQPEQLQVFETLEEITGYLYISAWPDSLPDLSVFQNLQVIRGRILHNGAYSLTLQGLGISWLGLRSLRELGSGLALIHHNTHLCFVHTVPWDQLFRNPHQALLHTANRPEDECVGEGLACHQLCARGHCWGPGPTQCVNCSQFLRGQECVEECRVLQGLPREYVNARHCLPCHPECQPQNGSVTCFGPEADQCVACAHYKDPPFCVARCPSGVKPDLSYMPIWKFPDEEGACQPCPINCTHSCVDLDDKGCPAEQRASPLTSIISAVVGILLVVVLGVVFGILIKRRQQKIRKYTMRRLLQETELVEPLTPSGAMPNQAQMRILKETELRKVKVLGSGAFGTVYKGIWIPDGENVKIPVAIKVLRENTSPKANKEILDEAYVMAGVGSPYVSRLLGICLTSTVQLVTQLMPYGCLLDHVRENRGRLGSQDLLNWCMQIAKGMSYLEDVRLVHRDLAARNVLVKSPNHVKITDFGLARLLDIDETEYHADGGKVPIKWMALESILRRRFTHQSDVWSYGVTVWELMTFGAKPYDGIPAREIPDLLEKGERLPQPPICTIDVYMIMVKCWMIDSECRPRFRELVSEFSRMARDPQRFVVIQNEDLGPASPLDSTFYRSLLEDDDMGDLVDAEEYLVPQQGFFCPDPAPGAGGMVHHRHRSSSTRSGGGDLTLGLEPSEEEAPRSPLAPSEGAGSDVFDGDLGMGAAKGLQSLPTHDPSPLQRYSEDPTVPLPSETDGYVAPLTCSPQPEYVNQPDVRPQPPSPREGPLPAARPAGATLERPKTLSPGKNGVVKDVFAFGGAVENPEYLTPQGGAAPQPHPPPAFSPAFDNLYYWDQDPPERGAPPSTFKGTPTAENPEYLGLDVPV
T8 sequence (O15530 whole entry): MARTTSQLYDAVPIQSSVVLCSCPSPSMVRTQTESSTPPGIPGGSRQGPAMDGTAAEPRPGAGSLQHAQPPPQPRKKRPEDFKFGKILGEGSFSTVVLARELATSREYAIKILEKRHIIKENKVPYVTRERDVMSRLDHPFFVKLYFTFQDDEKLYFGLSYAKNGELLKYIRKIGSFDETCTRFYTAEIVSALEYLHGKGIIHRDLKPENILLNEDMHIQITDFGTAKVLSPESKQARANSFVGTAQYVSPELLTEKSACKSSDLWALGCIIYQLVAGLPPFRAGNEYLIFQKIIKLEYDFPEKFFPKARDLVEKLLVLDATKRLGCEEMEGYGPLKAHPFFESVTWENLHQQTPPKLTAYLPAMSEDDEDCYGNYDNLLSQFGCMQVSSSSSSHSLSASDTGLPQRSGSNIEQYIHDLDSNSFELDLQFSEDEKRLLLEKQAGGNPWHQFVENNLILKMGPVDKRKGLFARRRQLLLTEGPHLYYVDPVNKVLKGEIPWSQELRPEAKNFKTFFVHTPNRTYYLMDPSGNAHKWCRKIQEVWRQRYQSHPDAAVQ
T12 sequence (P31749 whole entry): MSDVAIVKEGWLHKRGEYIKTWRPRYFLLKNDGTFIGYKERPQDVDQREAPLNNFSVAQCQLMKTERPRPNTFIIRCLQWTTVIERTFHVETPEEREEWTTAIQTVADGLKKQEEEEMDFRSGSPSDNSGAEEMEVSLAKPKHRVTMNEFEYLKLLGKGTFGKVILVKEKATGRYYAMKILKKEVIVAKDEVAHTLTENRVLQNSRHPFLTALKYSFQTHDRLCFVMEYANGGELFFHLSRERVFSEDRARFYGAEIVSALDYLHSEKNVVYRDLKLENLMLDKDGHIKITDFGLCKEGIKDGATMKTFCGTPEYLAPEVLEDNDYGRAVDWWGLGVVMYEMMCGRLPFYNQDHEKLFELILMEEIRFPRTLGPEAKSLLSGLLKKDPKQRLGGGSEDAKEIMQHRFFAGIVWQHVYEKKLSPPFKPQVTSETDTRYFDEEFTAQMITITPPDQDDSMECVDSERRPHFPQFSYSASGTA

For orientation: IC50 means the point on the concentration scale where inhibition reaches its midpoint. Lower therefore signals greater potency. With `O=C1CCCc2cc(-c3ccnc(Nc4ccccc4)n3)ccc2N1` [Compound 2a, 7-(2-Anilinopyrimidin-4-yl)-1,3,4,5-tetrahydro-2H-1-benzazepin-2-one], the IC50 against FAK was above 100 µM; on FLT3, 16 µM; at CK2-alpha1, above 100 µM; against INS-R, above 100 µM; on ERBB2, above 100 µM; at SRC it was 74 µM. For the same compound, the half-inhibitory concentration (IC50) on SAK is above 100 µM; against PDK1, above 100 µM; on PDGFR-beta, 44 µM; against ARK5, above 100 µM; against PAK4 it was above 100 µM; against AKT1, above 100 µM. Further, the IC50 on PLK1 and against EPHB4 was above 100 µM each time.

The values are drawn from paper PMC7998669, “7-(2-Anilinopyrimidin-4-yl)-1-benzazepin-2-ones Designed by a “Cut and Glue” Strategy Are Dual Aurora A/VEGF-R Kinase Inhibitors” (Molecules, 2021).
